According to ChEMBL document CHEMBL1201862, “PubChem BioAssay data set” (2004):
Several values for one entry are separate records, joined by “and”; a condition that tells them apart may be missing. Equal entries are not always repeated.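 Following 48 hours of exposure in 96-well plates, responses at five concentrations were used to interpolate endpoints linearly. GI50 = concentration required for 50% inhibition of growth.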 Activity calls are given as the source filed them. No stated cut-off is given here; in the data, active = GI50 up to about 1.1 µM and inactive = higher.

Legend:
Assay in all cases: NCI tumour cell line growth inhibition, 48 h
786-0 = system: 786-0
A498 = system: A498
A549 = system: A549
ACHN = system: ACHN
BT-549 = system: BT-549
CAKI-1 = system: CAKI-1
CCRF-CEM = system: CCRF-CEM
COLO 205 = system: COLO 205
DU-145 = system: DU-145
EKVX = system: EKVX
HCC 2998 = system: HCC 2998
HCT-116 = system: HCT-116
HCT-15 = system: HCT-15
HOP-62 = system: HOP-62
HOP-92 = system: HOP-92
IGROV-1 = system: IGROV-1
K562 = system: K562
KM12 = system: KM12
LOX IMVI = system: LOX IMVI
M14 = system: M14
MCF7 = system: MCF7
MDA-MB-231 = system: MDA-MB-231
MDA-MB-435 = system: MDA-MB-435
MDA-N = system: MDA-N
MOLT-4 = system: MOLT-4
NCI-H226 = system: NCI-H226
NCI-H23 = system: NCI-H23
NCI-H460 = system: NCI-H460
NCI/ADR-RES = system: NCI/ADR-RES
OVCAR-3 = system: OVCAR-3
OVCAR-5 = system: OVCAR-5
OVCAR-8 = system: OVCAR-8
PC-3 = system: PC-3
RPMI-8226 = system: RPMI-8226
RXF 393 = system: RXF 393
SF-295 = system: SF-295
SF-539 = system: SF-539
SK-MEL-28 = system: SK-MEL-28
SK-MEL-2 = system: SK-MEL-2
SK-MEL-5 = system: SK-MEL-5
SN12C = system: SN12C
SNB-19 = system: SNB-19
SNB-75 = system: SNB-75
SR = system: SR
SW-620 = system: SW-620
T47D = system: T47D
U-251 = system: U-251
UACC-257 = system: UACC-257
UACC-62 = system: UACC-62
UO-31 = system: UO-31
HT-29 = system: HT-29
Hs-578T = system: Hs-578T
OVCAR-4 = system: OVCAR-4
SF-268 = system: SF-268
TK-10 = system: TK-10
HL-60 = system: HL-60
NCI-H522 = system: NCI-H522
SK-OV-3 = system: SK-OV-3

`C[C@]12CC[C@H]3[C@@H](CCC4=CC(=O)C=C[C@@]43O)[C@@H]1CCC2=O` was tested, and the GI50 (786-0) was > 100 µM (inactive), the GI50 (A498) was > 100 µM (inactive) and the GI50 (A549) was 62.1 µM (inactive). For the same compound, the GI50 (ACHN) was > 100 µM (inactive), the GI50 (BT-549) was 55.2 µM (inactive) and the GI50 (CAKI-1) was > 100 µM (inactive). The GI50 (CCRF-CEM) was 26.4 µM (inactive), the GI50 (COLO 205) was > 100 µM (inactive) and the GI50 (DU-145) was > 100 µM (inactive). The GI50 (EKVX) was 70.8 µM (inactive), the GI50 (HCC 2998) was > 100 µM (inactive) and the GI50 (HCT-116) was > 100 µM (inactive). The GI50 (HCT-15) was 56 µM, the GI50 (HOP-62) was > 100 µM (inactive) and the GI50 (HOP-92) was 27.9 µM (inactive). For the same compound, the GI50 (IGROV-1) was 94 µM (inactive), the GI50 (K562) was 83.9 µM (inactive) and the GI50 (KM12) was > 100 µM (inactive). The GI50 (LOX IMVI) was 33.6 µM (inactive), the GI50 (M14) was > 100 µM (inactive) and the GI50 (MCF7) was > 100 µM (inactive). The GI50 (MDA-MB-231) was > 100 µM (inactive), the GI50 (MDA-MB-435) was > 100 µM (inactive) and the GI50 (MDA-N) was > 100 µM (inactive). The GI50 (MOLT-4) was 27.2 µM (inactive), the GI50 (NCI-H226) was 69.8 µM (inactive) and the GI50 (NCI-H23) was 51.5 µM (inactive). The GI50 (NCI-H460) was > 100 µM (inactive), the GI50 (NCI/ADR-RES) was 78.3 µM (inactive) and the GI50 (OVCAR-3) was > 100 µM (inactive). For the same compound, the GI50 (OVCAR-5) was > 100 µM (inactive), the GI50 (OVCAR-8) was 81.1 µM (inactive) and the GI50 (PC-3) was > 100 µM (inactive). For the same compound, the GI50 (RPMI-8226) was > 100 µM (inactive), the GI50 (RXF 393) was > 100 µM (inactive) and the GI50 (SF-295) was > 100 µM (inactive). The GI50 (SF-539) was > 100 µM (inactive), the GI50 (SK-MEL-28) was > 100 µM (inactive) and the GI50 (SK-MEL-2) was 77.4 µM (inactive). The GI50 (SK-MEL-5) was 82 µM (inactive), the GI50 (SN12C) was > 100 µM (inactive) and the GI50 (SNB-19) was > 100 µM (inactive). The GI50 (SNB-75) was > 100 µM (inactive), the GI50 (SR) was 74.3 µM (inactive) and the GI50 (SW-620) was > 100 µM (inactive). The GI50 (T47D) was > 100 µM (inactive), the GI50 (U-251) was > 100 µM (inactive) and the GI50 (UACC-257) was > 100 µM (inactive). For the same compound, the GI50 (UACC-62) was 60.1 µM (inactive) and the GI50 (UO-31) was > 100 µM (inactive).
With `CCCCCCCCCCCCCCCCOP(=O)(O)OP(=O)(O)OCC1OC(n2ccc(N)nc2=O)C(O)C1O` (stereo not drawn) the GI50 (BT-549) was > 93.3 µM (inactive), the GI50 (COLO 205) was > 100 µM (inactive) and the GI50 (DU-145) was > 100 µM (inactive) and 58.2 µM (inactive). For the same compound, the GI50 (EKVX) was > 100 µM (inactive), the GI50 (HCT-15) was > 100 µM and 98.2 µM and the GI50 (HOP-92) was > 100 µM (inactive) and 57.1 µM (inactive). The GI50 (HT-29) was 51.3 µM (inactive), the GI50 (Hs-578T) was > 91.6 µM (inactive) and the GI50 (IGROV-1) was > 100 µM (inactive) and > 89.7 µM (inactive). For the same compound, the GI50 (KM12) was > 100 µM (inactive), the GI50 (MDA-MB-231) was > 76.2 µM (inactive) and the GI50 (MDA-MB-435) was > 100 µM (inactive). The GI50 (MDA-N) was > 100 µM (inactive), the GI50 (NCI-H226) was 89.3 µM (inactive) and the GI50 (OVCAR-3) was > 100 µM (inactive). For the same compound, the GI50 (OVCAR-4) was > 100 µM (inactive), the GI50 (OVCAR-5) was > 100 µM (inactive) and > 61.9 µM (inactive) and the GI50 (PC-3) was 54.6 µM (inactive). For the same compound, the GI50 (RPMI-8226) was > 100 µM (inactive), the GI50 (RXF 393) was 58.2 µM (inactive) and the GI50 (SF-268) was > 100 µM (inactive). For the same compound, the GI50 (SF-539) was > 91 µM (inactive), the GI50 (SK-MEL-28) was > 100 µM (inactive) and the GI50 (SK-MEL-2) was > 100 µM (inactive). For the same compound, the GI50 (SK-MEL-5) was > 100 µM (inactive) and 53 µM (inactive), the GI50 (SW-620) was > 100 µM (inactive) and > 95.7 µM (inactive) and the GI50 (T47D) was > 74 µM (inactive). For the same compound, the GI50 (TK-10) was > 100 µM (inactive), the GI50 (U-251) was > 100 µM (inactive) and > 76.7 µM (inactive) and the GI50 (UACC-257) was > 100 µM (inactive) and > 96.6 µM (inactive).
In the case of `CC(C)(C)N(Cc1ccc2c(c1)OCO2)C(=O)/C=C\Sc1ccccc1`, the GI50 (786-0) is reported as > 100 µM (inactive), the GI50 (A498) is reported as 71 µM (inactive) and the GI50 (A549) is reported as 47 µM (inactive). For the same compound, the GI50 (ACHN) was > 100 µM (inactive), the GI50 (BT-549) was 42.6 µM (inactive) and the GI50 (CAKI-1) was > 100 µM (inactive). For the same compound, the GI50 (CCRF-CEM) was 43.5 µM (inactive), the GI50 (COLO 205) was 45.1 µM (inactive) and the GI50 (DU-145) was > 100 µM (inactive). The GI50 (EKVX) was 60.8 µM (inactive), the GI50 (HCC 2998) was 97.1 µM (inactive) and the GI50 (HCT-116) was 23.9 µM (inactive). The GI50 (HCT-15) was 63.8 µM, the GI50 (HL-60) was 37.1 µM (inactive) and the GI50 (HOP-62) was > 100 µM (inactive). For the same compound, the GI50 (HOP-92) was 14.2 µM (inactive), the GI50 (HT-29) was 28.8 µM (inactive) and the GI50 (IGROV-1) was 83.2 µM (inactive). The GI50 (K562) was 42.9 µM (inactive), the GI50 (KM12) was 81.8 µM (inactive) and the GI50 (LOX IMVI) was 77.8 µM (inactive). The GI50 (M14) was 77.1 µM (inactive), the GI50 (MCF7) was 51.8 µM (inactive) and the GI50 (MDA-MB-231) was > 100 µM (inactive). For the same compound, the GI50 (MDA-MB-435) was 25.8 µM (inactive), the GI50 (MDA-N) was 19.5 µM (inactive) and the GI50 (MOLT-4) was 21.1 µM (inactive). For the same compound, the GI50 (NCI-H226) was 68.2 µM (inactive), the GI50 (NCI-H23) was > 100 µM (inactive) and the GI50 (NCI-H522) was 6.98 µM (inactive). The GI50 (NCI/ADR-RES) was 89.5 µM (inactive), the GI50 (OVCAR-3) was > 100 µM (inactive) and the GI50 (OVCAR-4) was 77.8 µM (inactive). For the same compound, the GI50 (OVCAR-5) was > 100 µM (inactive), the GI50 (OVCAR-8) was > 100 µM (inactive) and the GI50 (PC-3) was 38.1 µM (inactive). The GI50 (RPMI-8226) was 30.3 µM (inactive), the GI50 (SF-295) was > 100 µM (inactive) and the GI50 (SF-539) was > 100 µM (inactive). The GI50 (SK-MEL-28) was > 100 µM (inactive), the GI50 (SK-MEL-2) was 25.2 µM (inactive) and the GI50 (SK-MEL-5) was 53.2 µM (inactive). For the same compound, the GI50 (SK-OV-3) was > 100 µM (inactive), the GI50 (SN12C) was > 100 µM (inactive) and the GI50 (SNB-19) was > 100 µM (inactive). For the same compound, the GI50 (SR) was 4.44 µM (inactive), the GI50 (SW-620) was 99.8 µM (inactive) and the GI50 (T47D) was 21.4 µM (inactive). For the same compound, the GI50 (TK-10) was > 100 µM (inactive), the GI50 (U-251) was 63.7 µM (inactive) and the GI50 (UACC-257) was 71.1 µM (inactive). For the same compound, the GI50 (UACC-62) was > 100 µM (inactive) and the GI50 (UO-31) was 43 µM (inactive).
